Source: EP0041615A1, “Use of imidazolyl-vinyl ketones and alcohols as antimicrobial agents” (BAYER AG, priority 1980, dated 1981)

Tests used:
[1] = tested on: Candida-Zellen; experiment: Antimycotic in-vivo activity (oral) in mouse candidosis; design: species or system Mäuse vom Typ SPF-CF1; conditions: 50-100 mg/kg each 1 h before and 7 h after i.v. infection, untreated controls about 5 % survival on day 6 p.i.
Experimental: Antimykotische in-vivo-Wirksamkeit (oral) bei Mäuse-Candidose
Mäuse vom Typ SPF-CF1 wurden intravenös mit 1-2 x 10^6 logarithmisch wachsenden Candida-Zellen, die in physiologischer Kochsalzlösung suspendiert waren, infiziert. Eine Stunde vor und sieben Stunden nach der Infektion werden die Tiere mit jeweils 50-100 mg/kg Körpergewicht der Präparate oral behandelt.
Unbehandelte Tiere starben 3 bis 6 Tage post infektionem. Die Ueberlebensrate am 6.Tag post infektionem betrug bei unbehandelten Kontrolltieren etwa 5 %.

[2] = tested on: Trichophyton mentagrophytes; experiment: Antimicrobial in-vivo activity (local), experimental guinea pig trichophytosis model; design: species or system Meerschweinchen der Rasse Pirbright-white; conditions: once daily from day 3 p.i., 1 % solution in dimethyl sulfoxide:glycerol 1:4, result means only slight reddening and isolated scales
From the text: Antimikrobielle in-vivo-Wirksamkeit (lokal) am Modell der experimetellen Meerschweinchen-Trichophytie
Weiße Meerschweinchen der Rasse Pirbright-white wurden auf dem geschorenen, nicht skarifizierten Rücken mit einer Mikro- und Makrokonidien-Suspension von Trichophyton mentagrophytes infiziert. Die infizierten Tiere wurden, beginnend am 3.Tag p.i., lx täglich mit 1%-iger Lösung der erfindungsgemäßen Präparate (in Dimethylsulfoxid:Glycerin=1:4) lokal behandelt.
Bei unbehandelten Tieren entwickelt sich innerhalb von 12 Tagen p.i. das typische Bild einer Dermatophytose mit Rötung, Schuppung und Haarausfall bis zum totalen Integument-Defekt an der Infektionsstelle.

[3] = tested on: Dermatophyten und Schimmelpilze; Hefen; experiment: Antimycotic in-vitro activity, serial dilution test; format: cell-based; conditions: inoculum 5 x 10^4 germs/ml, 28°C, 24 h (yeasts) or 96 h (dermatophytes, moulds), stated relative to prior-art compound (A)
Experimental: Antimykotische in-vitro-Wirksamkeit
Die in-vitro-Wirksamkeit im Reihenverdünnungstest wird mit Keiminokula von durchschnittlich 5 x 10^4 Keimen /ml Substant durchgeführt. Als Nährmedium dienten: • a) für Dermatophyten und Schimmelpilze: Sabouraud's milieu d'epreuve • b) für Hefen: Isotonic Sensitest-Broth von Oxid.
Die Bebrütungstemperatur berug 28°C; Bebrütungsdauer war 24 Stunden bei Hefen und 96 Stunden bei Dermatophyten und Schimmelpilzen.

SMILES | Wirkung (Mäuse-Candidose) [1] | Wirkung (Meerschweinchen-Trichophytie) [2] | antimykotische Wirkung [3]
CC(C)(C)C(O)C(=Cc1ccc(Cl)cc1)n1ccnc1 (stereo not shown) [(B), reference compound] | keine Wirkung | – | –
CCCCCCCC=C(C(=O)C(C)(C)C)n1ccnc1 [Beispiel 1] | – | Wirkung bis gute Wirkung | bessere antimykotische Wirkung
CCCCCCCC=C(C(O)C(C)(C)C)n1ccnc1 (stereo not shown) [Beispiel 2] | – | Wirkung bis gute Wirkung | bessere antimykotische Wirkung
CC(C)C=C(C(=O)C(C)(C)C)n1ccnc1 [Beispiel 5] | gute bis sehr gute Wirkung | – | bessere antimykotische Wirkung
CC(C)(C)C=C(C(=O)C(C)(C)C)n1ccnc1 [Beispiel 7] | gute bis sehr gute Wirkung | – | bessere antimykotische Wirkung
CCC(C)C=C(C(=O)C(C)(C)C)n1ccnc1 (stereo not shown) [Beispiel 8] | gute bis sehr gute Wirkung | Wirkung bis gute Wirkung | bessere antimykotische Wirkung
CC(C)(C)C(=O)C(=CC1CCCC1)n1ccnc1 [Beispiel 10] | – | – | bessere antimykotische Wirkung
CC=C(C(O)C(C)(C)C)n1ccnc1 (stereo not shown) [Beispiel 25] | gute bis sehr gute Wirkung | – | –
CCC(C)C=C(C(O)C(C)(C)C)n1ccnc1 (stereo not shown) [Beispiel 27] | – | Wirkung bis gute Wirkung | –
CC(C)(C)C(O)C(=CC1CCCC1)n1ccnc1 (stereo not shown) [Beispiel 28] | – | – | bessere antimykotische Wirkung
CC(C)(C)C(O)C(=CC1c2ccccc2-c2ccccc21)n1ccnc1 (stereo not shown) [Beispiel 32] | – | – | bessere antimykotische Wirkung
CC(C)(C)C(O)C(=CC1CCCCC1)n1ccnc1 (stereo not shown) [Beispiel 37] | – | – | bessere antimykotische Wirkung
CC(C)(C)C(=O)C(=Cc1ccccc1Cl)n1ccnc1 [Verbindung (A), reference compound] | keine Wirkung | – | –
